According to US12655116B2, “Substituted isophthalic acid diamides” (Bayer Aktiengesellschaft, priority 2020, dated 2026):

Columns and labels:
ABUTH [1] = test: Pre-emergence herbicidal action against ABUTH; assay type: in vivo, Abutilon theophrasti; settings: for pest or weed control at 80 g/ha: Abutilon theophrasti, 504 h; for pest or weed control at 80 g/ha / Pre-emergence action against ABUTH (herbicidal activity): scored visually after 3 weeks vs untreated controls (100% = plants have died, 0% = like control plants), 80 g/ha; for Pre-emergence action against ABUTH (herbicidal activity in percent): dosage 20 g/ha, scored visually after 3 weeks vs untreated controls, 100% = plants have died, 0% = like control plants
Summary of the method: (§1)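 Visual rating at 3 weeks vs untreated pots; 0–100% scale, 100% = plants died. Treatment: aqueous WP/EC spray onto covering soil, 600–800 l/ha, 0.2% wetter, seeds in sandy loam.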

AMARE [2] = test: Pre-emergence herbicidal action against AMARE; assay type: in vivo, Amaranthus retroflexus; settings: for pest or weed control at 20 g/ha / pest or weed control at 80 g/ha: Amaranthus retroflexus, 504 h
Summary of the method: as §1

MATIN [3] = test: Pre-emergence herbicidal action against MATIN; assay type: in vivo, Matricaria inodora; settings: for pest or weed control at 80 g/ha: Tripleurospermum inodorum, 504 h
Summary of the method: as §1

VERPE = test: Pre-emergence herbicidal action against VERPE; assay type: in vivo, Veronica persica; settings: dosage 80 g/ha; for pest or weed control at 80 g/ha: Veronica persica, 504 h
Source text: (§2) Seeds of monocotyledonous and dicotyledonous weed plants and crop plants are laid out in sandy loam soil in wood-fiber pots and covered with soil. The compounds of the invention, formulated in the form of wettable powders (WP) or as emulsion concentrates (EC), are then applied to the surface of the covering soil in the form of an aqueous suspension or emulsion at a water application rate equivalent to 600 to 800 l/ha, with addition of 0.2% wetting agent. After the treatment, the pots are placed in a greenhouse and kept under good growth conditions for the trial plants. The damage to the test plants is scored visually after a test period of 3 weeks by comparison with untreated controls (herbicidal activity in percent (%): 100% activity=the plants have died, 0% activity=like control plants). […] The tables below illustrate, in an illustrative manner, the post-emergence herbicidal action of the compounds of the invention, the herbicidal activity being stated in percent.

VIOTR = test: Pre-emergence herbicidal action against VIOTR; assay type: in vivo, Viola tricolor; settings: dosage 80 g/ha; for pest or weed control at 80 g/ha: Viola tricolor, 504 h
Summary of the method: as §1

DIGSA [4] = test: Pre-emergence herbicidal action against DIGSA; assay type: in vivo, Digitaria sanguinalis
Summary of the method: as §1

ABUTH [5] = test: Post-emergence herbicidal action against ABUTH; assay type: in vivo, Abutilon theophrasti; settings: visual assessment about 3 weeks after treatment vs untreated controls
Summary of the method: (§3)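 Greenhouse pot plants in sandy loam were sprayed at the one-leaf stage, 2 to 3 weeks after sowing, with WP or EC formulations as aqueous suspension or emulsion (600 to 800 l/ha water, 0.2% wetting agent). About 3 weeks later, damage was scored visually against untreated controls as % action (100% = dead, 0% = like control).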

AMARE [6] = test: Post-emergence herbicidal action against AMARE; assay type: in vivo, Amaranthus retroflexus; settings: 20 g/ha, visual assessment about 3 weeks after treatment, 100% = plants have died, 0% = like control plants; for pest or weed control at 20 g/ha: Amaranthus retroflexus, 504 h
Summary of the method: as §3

ECHCG [7] = test: Post-emergence herbicidal action against ECHCG; assay type: in vivo, Echinochloa crus-galli; settings: for pest or weed control at 20 g/ha: Echinochloa crus-galli, 504 h
Summary of the method: as §3

SETVI [8] = test: Post-emergence herbicidal action against SETVI; assay type: in vivo, Setaria viridis; settings: for pest or weed control at 20 g/ha: Setaria viridis, 504 h
Summary of the method: as §3

DIGSA [9] = test: Post-emergence herbicidal action against DIGSA; assay type: in vivo, Digitaria sanguinalis
Method: (§4) Seeds of monocotyledonous and dicotyledonous weed and crop plants are laid out in sandy loam soil in wood-fiber pots, covered with soil and cultivated in a greenhouse under good growth conditions. 2 to 3 weeks after sowing, the test plants are treated at the one-leaf stage. The compounds of the invention, formulated in the form of wettable powders (WP) or as emulsion concentrates (EC), are then sprayed onto the green parts of the plants in the form of an aqueous suspension or emulsion at a water application rate equivalent to 600 to 800 l/ha, with addition of 0.2% wetting agent. After the test plants have been left to stand in the greenhouse under optimal growth conditions for about 3 weeks, the action of the preparations is assessed visually in comparison to untreated controls (herbicidal action in percent (%): 100% activity=the plants have died, 0% activity=like control plants). […] The tables below illustrate, in an illustrative manner, the post-emergence herbicidal action of the compounds of the invention, the herbicidal activity being stated in percent.

ALOMY [10] = test: Post-emergence herbicidal action against ALOMY; assay type: in vivo, Alopecurus myosuroides; settings: dosage 20 g/ha, visual assessment about 3 weeks after treatment vs untreated controls
Method: as §4

ALOMY [11] = test: Pre-emergence herbicidal action against ALOMY; assay type: in vivo, Alopecurus myosuroides; settings: 80 g/ha, pre-emergence, scored visually after 3 weeks vs untreated controls (100% = plants have died, 0% = like control plants)
Source text: as §2

AVEFA = test: Pre-emergence herbicidal action against AVEFA; assay type: in vivo, Avena fatua; settings: 80 g/ha, pre-emergence
Source text: as §2

ECHCG [12] = test: Pre-emergence herbicidal action against ECHCG; assay type: in vivo, Echinochloa crus-galli; settings: 80 g/ha
Summary of the method: as §1

SETVI [13] = test: Pre-emergence herbicidal action against SETVI; assay type: in vivo, Setaria viridis; settings: dosage 80 g/ha
Summary of the method: as §1

MATIN [14] = test: Post-emergence herbicidal action against MATIN; assay type: in vivo, Matricaria inodora; settings: dosage 20 g/ha
Method: as §4

PHBPU = test: Post-emergence herbicidal action against PHBPU; assay type: in vivo, Pharbitis purpurea; settings: dosage 20 g/ha
Method: as §4

[15] = 20 g/ha, scored visually after 3 weeks vs untreated controls, 100% = plants have died, 0% = like control plants
[16] = 80 g/ha, scored visually after 3 weeks vs untreated controls, 100% = plants have died, 0% = like control plants
[17] = 80 g/ha, scored visually after 3 weeks vs untreated controls (100% = plants have died, 0% = like control plants)

| Structure (SMILES) | Pre-emergence action against AMARE in % (AMARE [2]; [17]) | Pre-emergence action against MATIN in % (MATIN [3]; dosage 80 g/ha) | Pre-emergence action against VIOTR in % (VIOTR) | Post-emergence action against ALOMY in % (ALOMY [10]) | Post-emergence action at 20 g/ha against AMARE in % (AMARE [6]) | Pre-emergence action against MATIN in % (MATIN [3]; dosage 20 g/ha) | Pre-emergence action against ABUTH (herbicidal activity) (ABUTH [1]) | Pre-emergence action against ABUTH (herbicidal activity in percent) (ABUTH [1]) | Pre-emergence action against ALOMY (herbicidal activity) (ALOMY [11]) | Pre-emergence action against AMARE in % (AMARE [2]; [15]) | Pre-emergence action against ECHCG in % (ECHCG [12]) | Pre-emergence action against SETVI in % (SETVI [13]) | Pre-emergence action against DIGSA in % (DIGSA [4]; dosage 80 g/ha) | Post-emergence action against PHBPU in % (PHBPU) | also measured |
| --- | --- | --- | --- | --- | --- | --- | --- | --- | --- | --- | --- | --- | --- | --- | --- |
| Cc1c(C(=O)Nc2nnnn2C)ccc(C(F)(F)F)c1C(=O)NC1COC1 [Example 1-41] |  |  |  |  |  |  |  |  |  |  |  |  |  |  | pest or weed control at 80 g/ha (ABUTH [1]): 100%; pest or weed control at 20 g/ha (AMARE [2]; [15]): 90%; pest or weed control at 80 g/ha (AMARE [2]; [16]): 100%; pest or weed control at 80 g/ha (MATIN [3]; dosage 80 g/ha): 100%; pest or weed control at 80 g/ha (VERPE): 90%; pest or weed control at 80 g/ha (VIOTR): 100%; pest or weed control at 80 g/ha (DIGSA [4]; Digitaria sanguinalis, 504 h, dosage 80 g/ha): 100%; pest or weed control at 5 g/ha (ABUTH [5]; Abutilon theophrasti, 504 h, dosage 5 g/ha): 80%; pest or weed control at 20 g/ha (ABUTH [5]; Abutilon theophrasti, 504 h, dosage 20 g/ha): 80%; pest or weed control at 20 g/ha (AMARE [6]): 90%; pest or weed control at 20 g/ha (ECHCG [7]; dosage 20 g/ha): 90%; pest or weed control at 20 g/ha (SETVI [8]; dosage 20 g/ha): 80%; pest or weed control at 5 g/ha (DIGSA [9]; Digitaria sanguinalis, 504 h, 5 g/ha): 80%; pest or weed control at 20 g/ha (DIGSA [9]; Digitaria sanguinalis, 504 h, 20 g/ha): 90% |
| CN(C)C(=O)CNC(=O)c1c(C(F)(F)F)ccc(C(=O)Nc2nnnn2C)c1Cl [Example 1-142] | 100% | 90% | 90% | 90% | 90% |  |  |  |  |  |  |  |  |  |  |
| CCNC(=O)c1c(Cl)ccc(C(=O)Nc2nnnn2C)c1Br [Example 1-350] |  |  |  |  |  |  |  |  |  |  |  |  |  |  | pest or weed control at 80 g/ha (ABUTH [1]): 100%; pest or weed control at 80 g/ha (ALOMY [11]; Alopecurus myosuroides, 504 h): 100%; pest or weed control at 20 g/ha (AMARE [2]; [15]): 100%; pest or weed control at 80 g/ha (AMARE [2]; [16]): 100%; pest or weed control at 80 g/ha (AVEFA; Avena fatua, 504 h): 90%; pest or weed control at 80 g/ha (ECHCG [12]; Echinochloa crus-galli, 504 h): 100%; pest or weed control at 80 g/ha (MATIN [3]; dosage 80 g/ha): 90%; pest or weed control at 80 g/ha (SETVI [13]; Setaria viridis, 504 h): 100%; pest or weed control at 80 g/ha (VERPE): 80%; pest or weed control at 80 g/ha (VIOTR): 100%; pest or weed control at 20 g/ha (AMARE [6]): 100%; pest or weed control at 20 g/ha (ECHCG [7]; dosage 20 g/ha): 80%; pest or weed control at 20 g/ha (SETVI [8]; dosage 20 g/ha): 80% |
| CCn1nnnc1NC(=O)c1ccc(C(F)(F)F)c(C(=O)NCC(=O)N(C)C)c1Cl [Example 2-142] | 100% | 100% | 100% | 80% | 100% | 80% |  |  |  |  |  |  |  |  |  |
| CCn1nnnc1NC(=O)c1ccc(C(F)F)c(C(=O)NCC(F)(F)F)c1Br [Example 2-229] | 100% | 100% | 100% |  | 90% | 100% | 100% | 80% | 90% | 100% | 80% | 100% | 100% | 90% | Pre-emergence action against AVEFA in % (AVEFA): 90%; Pre-emergence action against VERPE in % (VERPE): 80%; Post-emergence action against ABUTH in % (ABUTH [5]; dosage 20 g/ha): 80%; Post-emergence action against ECHCG in % (ECHCG [7]; dosage 20 g/ha): 90%; Post-emergence action against MATIN in % (MATIN [14]): 80%; Post-emergence action against SETVI in % (SETVI [8]; dosage 20 g/ha): 80% |
| Cc1nnc(NC(=O)c2ccc(Br)c(C(=O)NCC(F)F)c2Cl)o1 [Example 6-145] | 100% |  |  | 80% |  |  | 100% | 100% | 90% | 90% | 90% | 100% | 100% | 80% | Pre-emergence action against DIGSA in % (DIGSA [4]; dosage 20 g/ha): 90%; Post-emergence action against SETVI in % (SETVI [8]; dosage 5 g/ha): 80%; Post-emergence action against SETVI in % (SETVI [8]; dosage 20 g/ha): 90% |
| Cc1nnc(NC(=O)c2ccc(C(F)F)c(C(=O)NC(C)C)c2Cl)o1 [Example 6-260] | 100% | 100% |  |  | 80% | 100% | 100% | 90% | 90% | 100% | 100% | 100% | 100% | 90% | Pre-emergence action against VERPE in % (VERPE): 90%; Pre-emergence action against DIGSA in % (DIGSA [4]; dosage 20 g/ha): 100%; Post-emergence action against ABUTH in % (ABUTH [5]; dosage 20 g/ha): 90%; Post-emergence action against ECHCG in % (ECHCG [7]; dosage 5 g/ha): 90%; Post-emergence action against ECHCG in % (ECHCG [7]; dosage 20 g/ha): 90%; Post-emergence action against MATIN in % (MATIN [14]): 80%; Post-emergence action against DIGSA in % (DIGSA [9]; 5 g/ha): 90%; Post-emergence action against DIGSA (DIGSA [9]; 20 g/ha): 90% |
